Assay results taken from patent US20070129336A1, “Camphanylidene and phenylalkyl inositol polyphosphate compounds, compositions, and methods of their use” (Inologic, Inc., priority 2003, published 2007).

Key:
CFHNE cell monolayers = assay: Cystic fibrosis human nasal epithelial cell Ussing chamber assay; assay type: cell-based; details: 2 hour pretreatment, measured 22 hours later
Excerpt: CF Human Nasal Epithelial (CFHNE) Cell Isolation and Proliferation: Surgically removed nasal polyps were obtained from volunteers in collaboration with Dr. Bonnie Ramsey at Children's Hospital, Seattle and Dr. Ludwig Allegra at the Northwest Nasal Sinus Center, and transported on ice in a sterile container containing a 1:1 mixture of Dulbecco's modification of minimum essential medium Eagle and Ham's F-12 nutrient medium (DMEM/F-12)(Irvine Scientific, Santa Ana, Calif.) supplemented with 100 U/ml penicillin, 0.1 mg/ml streptomycin, 10 mM HEPES, and 2 mM L-glutamine. The tissue samples were aseptically removed from the transport medium and washed (repeated 5X) by suspending in 40 ml of Joklik's modification of minimum essential medium Eagle (JMEM) at 4° C., and centrifuging at 500 RPM. The supernatant was aspirated and discarded. The tissue was then transferred to JMEM containing 200 U/ml penicillin, 0.2 mg/ml streptomycin, 0.1 mg/ml gentamicin sulfate (Clonetics, San Diego, Calif.), and 0.1 μg/ml amphotericin-B (Clonetics), and 0.1% Protease (Sigma), washed an additional 2×, suspended in 15 ml in a 10 cm tissue culture dish, and incubated at 4° C. for 24 hours. The tissue samples were then gently triturated, the connective tissue aseptically removed, and the remaining cell suspension centrifuged at 1000 RPM for 5 min. […] The cells were then counted using a hemocytometer. […]

iNOS = assay: Survey of iNOS inhibition, 2 hr LPS pre-stimulation (nitrite by Greiss reagent); assay type: cell-based, murine; details: RAW 264.7 cells, LPS/ATP stimulation for two hours, then compound added
Experimental: We chose the well characterized LPS stimulation of the murine macrophage cell line RAW 264.7, that produces substantial quantities of NO, to screen inositol polyphosphate compounds in vitro (FIGS. 8-12 and Table 1). This assay system offers a number of opportunities to characterize drug action as pre-transcriptional, post transcriptional, translational or post translational.
Nitrite (NO2^−) accumulation in cell-free supernatant, used as an indicator of NO production, was measured using the modified Greiss reagent (Sigma G4410, St Louis, Mo.). This method was applied as described elsewhere (Martinez, J. et al., “Regulation of prostaglandin E2 production by the superoxide radical and nitric oxide in mouse peritoneal macrophages,” Free Radical Res 32:303-311 (2000)). Briefly, RAW264.7 cells (ATCC, #TIB-71) were maintained in standard tissue culture flasks and with DMEM+10% heat inactivated fetal bovine serum(HI-FBS) (Fetal-bovine serum, Heat-inactivated, Sercare Life Sciences, Oceanside, Calif.). Experiments were initiated by seeding logarithmic cells at […] per well in a 96-well plate in phenol-red free RPMI 1640 (Sigma #R8755)+10% HI-FBS at least four hours before the initiation of the experiment. Cells were exposed to treatment compounds for a minimum of 30 minutes in RPMI-1640 supplemented with 10% fetal calf serum. The compound treatment was removed and inflammatory compounds dissolved in RPMI-1640 supplemented with 10% FBS were applied to the cells. Stimulated cells and appropriate controls were incubated for 18-24 hours before sampling 50 μl of the cell-free supernatant from each well. This sample of supernatant was combined with 25 μl of a nitrate reductase cocktail (0.1 units/ml nitrate reductase enzyme, 5 μM FAD, 30 μM NADPH) and incubated for 30 minutes[…]. To this mixture, 25 μl of LDH cocktail (100 units/ml rabbit muscle lactate dehydrogenase in 0.3 mM sodium pyruvate) was added and the total mixture was incubated another 5-10 min at […]. Greiss reagent was added in 100 μl amounts to each 100 μl experimental sample. Color development proceeded for a minimum of 10 minutes while protected from light. Nitrite levels were compared to a sodium nitrite standard curve freshly prepared in the same medium used for the growth and incubation of the cells and treated with the same enzyme treatments. Color development was recorded by using a Packard Spectracount Plate reader at 540 nm wave length.
It is important to identify the conditions under which the compounds exert their greatest desired effect with the minimal adverse effects. Understanding this relationship is important as signaling molecule mimetics may require special conditions of concentration and duration to generate the desired therapeutic effect. To ascertain whether effects could be observed post-exposure to stimulus, cells were exposed to the LPS/ATP stimulation for two hours at […] after which compound was added.

human CF nasal epithelia = assay: Blue Dextran volume transport assay; assay type: cell-based; details: CF nasal epithelia monolayers, apical application, 18 hours
Excerpt: In normal human airway epithelia, Na+ and Cl− currents (CFTR and Ca2+-activated Cl− currents) contribute to airway surface liquid (ASL) fluid volume regulation depending on signaling equilibria. In contrast, in human CF airway epithelia, Na+ currents through ENaC dominate basal ASL volume regulation accompanied by a relatively minor contribution through Ca2+-activated Cl− currents. The combination of enhanced ENaC currents and transient Ca2+-activated Cl− currents in CF result in an inadequate hydration of the ASL and reduction of mucociliary clearance. […] The resulting reduction in the ability of these monolayers to concentrate BD was taken as a functional indicator of the test compound's involvement in the inhibition of ENaC.
All procedures were performed aseptically. The Blue Dextran (BD) stock solution was prepared with HEPES modified Ringer's buffer (HMRB) (2 mg BD/ml buffer). The compounds tested were solubilized in HMRB containing ˜1 μM BD. Final concentration of vehicle is 0.1% unless otherwise indicated (1:1, DMSO+DMSO containing 5% (w/v) pluronic-F127). The composition of HMRB (pH 7.3, 6.7 when equilibrated with 95%air/5%CO2) is as follows (in mM): 135 NaCl, 1.2 CaCl2, 1.2 MgCl2, 2.4 K2HPO4, 0.6 KH2PO4, 10 HEPES, 10 glucose (˜285 mOsm.). 200 μl of the BD solution was applied to the apical surface and placed in a highly humidified incubator (Forma model 3956 set on “high” humidity) for 18 hours. Basolateral buffer consisted of BEGM (˜300 mOsm.). After 18 hours, 60 μl of the remaining apical buffer was sampled and transferred to a 0.7 ml micro-centrifuge tube for storage until analysis. A standard concentration curve was obtained by determining the optical densities, at 660 nm, of a serial dilution of 10 μM Blue Dextran in HMRB in a 96-well plate using a Packard Spectracount. The [BD] of the samples, which were read on the same plate, was determined by extrapolation from the BD standard curve using Packard I-Smart software. The increase in [BD] from the starting value of 1 μM was taken to be an indication of the magnitude of volume absorption occurring across the monolayer. The rate of absorption was calculated by dividing the change in volume by the duration of the experiment. This value was normalized to a surface area of 1 cm^2, to give μl·cm2 −1·hr −1. All experiments, unless otherwise indicated, were conducted over a period of 18 hours.

Compound | effect on basal Isc (CFHNE cell monolayers) | IC50 (iNOS; experiment 1 of three) [µM] | IC50 (iNOS; experiment 2 of three) [µM] | IC50 (iNOS; experiment 3 of three) [µM] | inhibition of fluid absorption (human CF nasal epithelia)
CCCC(=O)OC1C(OCCCc2ccccc2)C(OP(=O)(OCOC(=O)CC)OCOC(=O)CC)C(OP(=O)(OCOC(=O)CC)OCOC(=O)CC)C(OP(=O)(OCOC(=O)CC)OCOC(=O)CC)C1OP(=O)(OCOC(=O)CC)OCOC(=O)CC (centres unmarked) [INO-4997, 2-O-butyryl-1-O-(3-phenylpropyl)-myo-inositol 3,4,5,6-tetrakisphosphate octakis (propionoxymethyl) ester] | prolonged effect | 12.5 | 12.5 | 9 | dose dependent inhibition of fluid absorption
CCC(=O)OCOP(=O)(OCOC(=O)CC)OC1C2OC3(CC4CCC3(C)C4(C)C)OC2C(OP(=O)(OCOC(=O)CC)OCOC(=O)CC)C(OP(=O)(OCOC(=O)CC)OCOC(=O)CC)C1OP(=O)(OCOC(=O)CC)OCOC(=O)CC (centres unmarked) [INO-4996, 1,2-camphanylidene-myo-inositol 3,4,5,6-tetrakisphosphate octakis (propionoxymethyl) ester] | – | 6.25 | 3.13 | 6.25 | dose dependent inhibition of fluid absorption
CCC(=O)OCOP(=O)(OCOC(=O)CC)OC1C2OC3(CC4CCC3(C)C4(C)C)OC2C(OP(=O)(OCOC(=O)CC)OCOC(=O)CC)C(OP(=O)(OCOC(=O)CC)OCOC(=O)CC)C1OP(=O)(OCOC(=O)CC)OCOC(=O)CC (centres unmarked) [INO-4984, 2,3-camphanylidene-myo-inositol 1,4,5,6-tetrakisphosphate octakis (propionoxymethyl) ester] | – | 18 | 3.13 | 12.5 | dose dependent inhibition of fluid absorption
N=C(N)NC(=O)c1nc(Cl)c(N)nc1N [amiloride, reference compound] | – | – | – | – | inhibited fluid absorption measured by the Blue Dextran assay in a dose dependent fashion
